Results on one compound are retold here after patent US7553837B2, “Phenylazole compounds production process and antioxidants” (Nippon Soda Co., Ltd., priority 2003, dated 2009).

Assay [1] addresses T1, 15-LO obtained from reticulocyte of rabbit (Oryctolagus cuniculus, UniProt P12530).
T1 construct: 15-LO obtained from reticulocyte of rabbit; from tissue; host or cells: rabbit reticulocytes
T1 sequence (P12530 1-663): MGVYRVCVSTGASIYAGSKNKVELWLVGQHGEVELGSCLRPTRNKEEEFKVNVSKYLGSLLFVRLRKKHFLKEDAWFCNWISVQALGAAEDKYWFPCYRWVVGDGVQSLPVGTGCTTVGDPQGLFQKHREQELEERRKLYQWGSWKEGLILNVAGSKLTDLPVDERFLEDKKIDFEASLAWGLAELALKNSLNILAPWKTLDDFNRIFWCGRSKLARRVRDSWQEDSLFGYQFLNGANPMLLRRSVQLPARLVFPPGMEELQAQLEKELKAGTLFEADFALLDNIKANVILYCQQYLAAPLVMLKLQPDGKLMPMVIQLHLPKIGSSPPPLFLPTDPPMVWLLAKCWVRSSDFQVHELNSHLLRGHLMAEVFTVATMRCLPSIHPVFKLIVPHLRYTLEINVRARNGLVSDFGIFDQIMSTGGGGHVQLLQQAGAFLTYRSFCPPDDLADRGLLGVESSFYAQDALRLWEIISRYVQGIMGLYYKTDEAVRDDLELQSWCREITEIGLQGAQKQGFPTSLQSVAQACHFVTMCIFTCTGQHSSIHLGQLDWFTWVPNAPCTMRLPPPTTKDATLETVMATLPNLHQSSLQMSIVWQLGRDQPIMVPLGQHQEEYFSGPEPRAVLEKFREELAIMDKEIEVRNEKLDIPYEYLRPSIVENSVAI
The assay can be described thus: 15-lipoxygenase (15-LO) inhibitory activity, 15-HETE production. Conditions: 15-LO from reticulocyte of rabbit, linoleic acid. It is filed as biochemical. How it is done: A 15-LO inhibitory activity was measured by a partially modified process of a process of Auerbach et al. (Auerbach B. J, et al., Anal. Biochem.: 201, 375-80, 1992). That is, 15-LO obtained from reticulocyte of rabbit and each of test compounds dissolved in DMSO (final concentration: 1%) were preincubated (4° C., 15 minutes) in phosphoric acid buffer (pH 7.4) and 256 μM linoleic acid was further added, followed by incubation (4° C., 10 minutes). The amount of 15-HETE produced as a result of incubation was determined by spectrophotometry (OD660nm) and 50% production inhibitory concentration (μM) against 15-LO of each test compound was calculated. Compounds (R-3) and (R-4) (edaravone) of the following formulas were used as a control drug.

For assay [2], the system named is abnormal behavior and fatality due to ferrous chloride. As to the kind of experiment: In vivo antioxidative activity: ferrous chloride administration into spinal subarachnoid cavity of mice. Details: species or system Slc:ICR male mice. Conditions: score after 60 minutes. How it is done:
An in vivo antioxidative activity of the compounds of the present invention was evaluated from an abnormal behavior due to administration of ferrous chloride into spinal subarachnoid cavity of mice as well as an inhibitory effect of a fatality rate according to the process described in J. Med. Chem., 1997, Vol. 40, p. 559-573. Using Slc:ICR male mice (one group: 3 to 7 mice, 5 weeks old) (available from Nippon SLC Co., Ltd.), 5 μl of a 50 mM ferrous chloride physiological saline solution was administered to the spinal canal through the space between the fifth lumbar vertebrae and the sixth lumbar vertebrae. 20 to 60 minutes after administration of ferrous chloride, symptoms were observed and a score after 60 minutes was determined from symptoms shown in Table 32. […] As is apparent from the results, the compounds of the present invention have an in vivo antioxidation action.

The target in assay [3] is T2, 5-lipoxygenase (5-LO) (Homo sapiens, UniProt P09917).
T2 construct: human peripheral blood mononuclear cells and each of test compounds dissolved in DMSO (final concentration: 1%) were preincubated; endogenous in cells; host or cells: human peripheral blood mononuclear cells
T2 sequence (P09917 1-674): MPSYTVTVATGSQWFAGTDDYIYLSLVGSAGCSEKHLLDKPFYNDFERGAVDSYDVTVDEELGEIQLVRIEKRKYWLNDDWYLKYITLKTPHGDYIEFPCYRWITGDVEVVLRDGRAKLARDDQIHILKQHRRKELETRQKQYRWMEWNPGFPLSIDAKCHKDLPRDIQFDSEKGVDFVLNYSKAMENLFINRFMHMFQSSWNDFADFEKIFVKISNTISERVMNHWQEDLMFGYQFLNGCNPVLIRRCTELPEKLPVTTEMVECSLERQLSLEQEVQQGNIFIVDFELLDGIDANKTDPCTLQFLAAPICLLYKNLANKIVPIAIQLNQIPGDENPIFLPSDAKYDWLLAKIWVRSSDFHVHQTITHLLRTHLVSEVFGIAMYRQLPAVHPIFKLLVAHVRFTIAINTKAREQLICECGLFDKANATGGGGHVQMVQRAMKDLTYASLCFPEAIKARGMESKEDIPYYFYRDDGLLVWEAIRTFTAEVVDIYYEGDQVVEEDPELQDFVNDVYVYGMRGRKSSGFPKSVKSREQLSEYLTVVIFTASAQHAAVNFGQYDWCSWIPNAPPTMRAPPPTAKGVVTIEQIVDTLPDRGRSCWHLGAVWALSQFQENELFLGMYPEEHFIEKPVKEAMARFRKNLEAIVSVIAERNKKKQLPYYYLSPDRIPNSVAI
The assay can be described thus: 5-lipoxygenase (5-LO) inhibitory activity, leukotriene B4 production in human peripheral blood mononuclear cells. In kind it is cell-based. Conditions: human peripheral blood mononuclear cells, A23187, leukotriene B4 production. The method, then:
A 5-LO inhibitory activity was measured by a partially modified process of a process of Carter et al. (Carter G. W, et al, J. Pharmacol. Exp. Ther.: 256, 929-37, 1991). That is, human peripheral blood mononuclear cells and each of test compounds dissolved in DMSO (final concentration: 1%) were preincubated (37° C., 15 minutes) in a Hanks' balanced salt solution and 30 μM A23187 was further added, followed by incubation (37° C., 30 minutes). The amount of leukotriene B4 produced as a result of incubation was determined by enzyme immunoassay and a 50% production inhibitory concentration (μM) against 5-LO of each test compound was calculated.

Assay [4] concerns lipid peroxidation activity in a rat brain homogenate. As to the kind of experiment: In vitro lipid peroxidation inhibition (rat brain homogenate, thiobarbituric acid process). In kind it is biochemical. Conditions: read-out: In vitro lipid peroxidation inhibition 50% inhibitory concentration (IC50 μM), 500 μM cysteine, 5 μM sulfuric acid monobasic iron, 100 mM KCl, 37° C. for 30 minutes. The method, then: An in vitro lipid peroxidation inhibition of the compounds of the present invention was evaluated by measuring a lipid peroxidation activity in a rat brain homogenate according to a process of Malvy, c., et al., Biochemical and Biophysical Research Communications, 1980, Vol. 95, p. 734-737. That is, a rat brain was extracted and a 5-fold amount of an aqueous phosphoric acid buffered saline solution (pH 7.4) (hereinafter abbreviated to PBS) was added to the brain under ice cooling, followed by homogenization using a Teflon homogenizer and further centrifugation at 10,000 g for 20 minutes to prepare a brain homogenate as a supernatant. To the brain homogenate thus prepared, 500 μM cysteine, 5 μM sulfuric acid monobasic iron and 100 mM KCl were added, followed by incubation at 37° C. for 30 minutes. Malondialdehyde produced by the […] of lipid peroxidation was measured by a thiobarbituric acid process.

As to `Cc1c(C)c2c(c(C)c1N)CC(C)(CN1CCN(c3cccc(-n4ccnc4)c3)CC1)O2` (centres unmarked) [Compound B-1-18], the values for the IC50 in assay [1], in assay [3] and in assay [4] were 1540 nM, 2550 nM and 0.25 µM, respectively. Further, the “In vivo antioxidation action 50% inhibitory concentration (ID50), Intraperitoneal administration” value in assay [2] (intraperitoneal administration 30 minutes before ferrous chloride into spinal canal) is on record as 4.7 mg/kg. For the same compound, in assay [2] (oral administration 30 minutes before ferrous chloride into spinal canal), the “In vivo antioxidation action 50% inhibitory concentration (ID50), Oral administration” value is 7.4 mg/kg.
